Laboratory results from PubChem BioAssay (NCI).
Values joined by “and” are separate entries in the source; they are usually repeats but may differ in a detail not shown here. Equal entries are not always repeated.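 1) Cells in 96-well plates. 2) Compound, 48 h, 5 concentrations. 3) Linear interpolation between surrounding doses. 4) Unreached endpoint = highest concentration. Here, GI50 denotes the concentration required for 50% inhibition of growth. TGI: concentration producing complete growth inhibition.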

Assays:
Assay in all cases: inhibition of tumour cell growth, NCI panel, 48 h
MDA-N = system: MDA-N
DMS 114 small cell lung = system: DMS 114 small cell lung
DMS 273 small cell lung = system: DMS 273 small cell lung
LXFL 529 NSCLC = system: LXFL 529 NSCLC
M19-MEL melanoma = system: M19-MEL melanoma
SNB-78 CNS = system: SNB-78 CNS
XF 498 CNS = system: XF 498 CNS
RXF-631 renal = system: RXF-631 renal

| Compound | TGI (MDA-N) [µM] | TGI (DMS 114 small cell lung) | TGI (DMS 273 small cell lung) | TGI (LXFL 529 NSCLC) | TGI (M19-MEL melanoma) | TGI (SNB-78 CNS) | TGI (XF 498 CNS) | TGI (RXF-631 renal) [µM] | other results |
| --- | --- | --- | --- | --- | --- | --- | --- | --- | --- |
| C=C1C(=O)O[C@@H]2/C=C(/C)[C@@H](OC(C)=O)C[C@@H](O)/C(C)=C\[C@@H](OC(=O)[C@]3(C)O[C@@H]3C)[C@@H]12 | 30.1 | – | – | – | – | – | – | – | – |
| NC(=O)NNC/C(Cl)=C(\Cl)C(=O)O | – | > 100 µM | > 100 µM | > 100 µM | > 100 µM | > 100 µM | > 100 µM | – | – |
| C/C(=N\N=C(N)N)C(CN1CCOCC1)C(c1ccccc1)c1c(O)c2ccccc2oc1=O (centres undefined) | – | > 100 µM | > 100 µM | > 100 µM | > 100 µM | > 100 µM | > 100 µM | – | – |
| C=CC1=C(C)C(/C=c2\[nH]/c(=C/c3[nH]c(CC4NC(=O)C(C)/C4=C\C)c(C)c3CCC(=O)O)c(CC(=O)O)c2C)=NC1=O (centres undefined) | – | > 100 µM | – | > 100 µM | > 100 µM | > 100 µM | > 100 µM | > 100 | – |
| COC(=O)C1=C(C)NC(C)=C(C(=O)OC)C1c1cccc(/[N+]([O-])=C/c2ccccc2)c1 | 31.6 | – | – | – | – | – | – | – | – |
| CC(=O)OC1CC2(C)C(=CC1C1SCCS1)CCC1C2CCC2(C)C(OC(C)=O)CCC12 (centres undefined) | > 100 | – | – | – | – | – | – | – | – |
| CC(=O)C(CN1C(=O)c2ccccc2C1=O)C(C)=O | > 100 | – | – | – | – | – | – | – | – |
| COC(=O)CC[C@@H](C)[C@H]1CC[C@H]2[C@@H]3CC[C@@H]4C[C@H](O)CC[C@]4(C)[C@H]3CC[C@]12C | 35.6 | – | – | – | – | – | – | – | – |
| Clc1ccc2c(NC3CCC(N4CCCCC4)CC3)ccnc2c1 (centres undefined) | 33.2 | – | – | – | – | – | – | – | – |
| O=C1CCC2(O)c3ccccc3C2Cc2ccccc21 (centres undefined) | – | > 100 µM | > 100 µM | – | > 100 µM | > 100 µM | > 100 µM | – | – |
| O=C1OC(OC/C(Br)=C(\Br)COC2OC(=O)C(Cl)=C2Cl)C(Cl)=C1Cl (centres undefined) | 14.3 | – | – | – | – | – | – | – | – |
| CC12CCC(C1)C(C)(C)C2OC(=O)c1ccccc1N (centres undefined) | 29.7 | – | – | – | – | – | – | – | – |
| CCC(=O)OCOc1ccc(/C=C2\CCC(CN(C)C)C2=O)cc1 (centres undefined) | 16.5 | 56.4 µM | 15.2 µM | 9.27 µM | 11.1 µM | 31.5 µM | 4.15 µM | > 61.2 | – |
| O=C1C=CC2C3C(=O)N(c4ccccc4)C(=O)C3C1N2Cc1ccccc1 (centres undefined) | 10.9 | – | – | – | – | – | – | – | GI50 (MDA-N): 3.14 µM |
| OC1OCC(COc2cc(Cl)c(Cl)cc2Cl)OC1O (centres undefined) | – | 88.3 µM | > 100 µM | > 100 µM | > 100 µM | 79.7 µM | – | > 100 | – |
| COc1cc(C2c3cc4c(cc3[C@@H](NC3CCN(Cc5ccccc5)CC3)C3COC(=O)[C@H]23)OCO4)cc(OC)c1O (some centres undefined) | – | 1.96 µM and 0.316 µM | 0.558 µM and 0.18 µM | 4.4 µM and 2.72 µM | 2.1 µM and 1.9 µM | 6.03 µM and 8.24 µM | 2.34 µM and 1.4 µM | – | GI50 (DMS 114 small cell lung): 169 nM and 63.9 nM; GI50 (DMS 273 small cell lung): 114 nM and 21.9 nM; GI50 (LXFL 529 NSCLC): 1100 nM and 438 nM; GI50 (SNB-78 CNS): 2040 nM and 887 nM; GI50 (XF 498 CNS): 377 nM and 132 nM |
| Cc1ccc(/C=C2\CCCCC2=O)cc1 | – | > 100 µM | > 100 µM | > 100 µM | > 100 µM | > 100 µM | > 100 µM | > 100 | – |
| Cc1ccc2ccccc2c1CSc1nc(N)nc2c1ncn2CC(C)C | > 100 | – | – | – | – | – | – | – | – |
| COc1ccc(N=NC2=C(O)CCC2=O)cc1 | – | > 100 µM | > 100 µM | – | > 100 µM | > 100 µM | – | > 100 | – |
| CCOP(=O)(OCC)/C(=C/n1c(=S)[nH]c2ccccc21)C(=O)OC | > 100 | – | – | – | – | – | – | – | – |

| Compound | TGI (MDA-N) [µM] | TGI (DMS 114 small cell lung) | TGI (DMS 273 small cell lung) | TGI (LXFL 529 NSCLC) | TGI (M19-MEL melanoma) | TGI (SNB-78 CNS) | TGI (XF 498 CNS) | TGI (RXF-631 renal) [µM] | other results |
| --- | --- | --- | --- | --- | --- | --- | --- | --- | --- |
| CSc1ccc(N2C(=O)C3c4[nH]c5ccccc5c4C4CCC(C(C)(C)C)CC4C3C2=O)cc1 (centres undefined) | – | 63.5 µM | 25.3 µM | 47.5 µM | > 100 µM | 31.1 µM | > 100 µM | – | – |
| C=CCC1(CN(C)C)CC/C(=C\c2ccc3c(c2)OCO3)C1=O (centres undefined) | – | – | > 100 µM | > 100 µM | > 100 µM | > 100 µM | – | 78.4 | – |
| O=C(Nc1ccc(Br)c2ccccc12)c1ccc2ccccc2c1O | 15.6 | – | – | – | – | – | – | – | – |
| Cc1cc(-c2ccccc2)nc(Nc2cc3ccccc3[nH]2)n1 | – | > 100 µM | – | > 100 µM | > 100 µM | > 100 µM | > 100 µM | – | – |
| COc1ccc(C(C2=C(O)CC(C)OC2=O)C2=C(O)CC(C)OC2=O)cc1 (centres undefined) | – | > 100 µM | > 100 µM | > 100 µM | > 100 µM | > 100 µM | – | > 100 | – |
| [N-]=[N+]=C(C(=O)CN1CCCC1=O)S(=O)(=O)c1ccccc1 | > 100 | – | – | – | – | – | – | – | – |
| CCCCCCCCCCCCCCNCC(OC)OC | – | 29.3 µM | 33 µM | 30 µM | 32.3 µM | 34.3 µM | 31.7 µM | 31.2 | – |
| CCC(O)CCCCCCCCCCCCCCC(=O)O (centres undefined) | – | > 100 µM | > 100 µM | > 100 µM | > 100 µM | > 100 µM | > 100 µM | > 100 | – |
| COc1cc(/C=C2\[C@@H]3NC(Cc4c(OC)c(C)c(OC)c(OC)c43)C(=O)N2Cc2ccccc2)c(OC)c(C)c1OC | – | > 100 µM | > 100 µM | > 100 µM | 77.3 µM | – | – | > 100 | – |
| O=[N+]([O-])c1ccc2c(c1)C(N1CCN(CCO)CC1)Cc1ccc(F)cc1S2 (centres undefined) | 24.1 | – | – | – | – | – | – | – | – |
| CC1(c2ccc(F)cc2)C2C(=O)NC(=O)C1C(=O)NC2=O (centres undefined) | – | > 100 µM | > 100 µM | > 100 µM | > 100 µM | > 100 µM | > 100 µM | – | – |
| CC1C(c2ccccc2)N(C)C(c2ccccc2)C(C)C1(O)c1ccccc1 (centres undefined) | – | > 100 µM | > 100 µM | > 100 µM | > 100 µM | > 100 µM | – | – | – |
| OC(c1cc(C(F)(F)F)nc2c(Cl)cc(Cl)cc12)C1CCCCN1 (centres undefined) | > 100 | – | – | – | – | – | – | – | – |
| CC1(C)OCC2OC(n3cnc4c(N)nc(Cl)nc43)C(OS(C)(=O)=O)C2O1 (centres undefined) | > 100 | – | – | – | – | – | – | – | – |
| COc1cc2[nH]c3c(c2cc1OC)CCN[C@@]31CC[C@@]2(CC3c4c(cc(OC)c(O)c42)CCN3C)C[C@@H]1OC (some centres undefined) | 35.9 | 37.2 µM | > 100 µM | > 100 µM | 40 µM | > 100 µM | 32.4 µM | 25.2 | – |
| O=C(CC12C3C4C1C1C2C3C41CC(=O)NO)NO (centres undefined) | – | 60.6 µM | > 100 µM | > 100 µM | – | > 100 µM | > 100 µM | > 100 | – |
| O=C(NC1CCC[C@H]1OC(=O)c1ccccc1)c1ccccc1 (some centres undefined) | – | – | > 100 µM | – | > 100 µM | > 100 µM | > 100 µM | > 100 | – |
| CCO/C=C\C12CCCC1NC(c1ccccc1)(c1ccccc1)O2 (centres undefined) | – | 79.5 µM | > 100 µM | 74.5 µM | 64.5 µM | > 100 µM | – | – | – |
| Nc1nc2cc(Cl)ccc2n1N | > 100 | – | – | – | – | – | – | – | – |
